Data taken from publication PMC11343938, “Micro-scale screening of genetically modified Fusarium fujikuroi strain extends the apicidin family” (Natural Products and Bioprospecting, 2024).
Read-outs that look alike come from different tables or passages of the source. Square brackets hold non-standard residues; d marks the D form. Peptide text beside a SMILES is read from it. Trp(1-OMe) = COn1cc(C[C@H](N)C(=O)O)c2ccccc21; Asu = N[C@@H](CCCCCC(=O)O)C(=O)O; dPip = O=C(O)[C@H]1CCCCN1

How the values were obtained:
in vitro [1] = settings: rat
P. falciparum NF54 = test: In vitro antiparasitic activity against P. falciparum; format: cell-based; settings: Plasmodium falciparum, P. falciparum NF54, intraerythrocytic forms, read-out: IC50 inhibition of P. falciparum growth
Experimental: (§1) Furthermore, the whole set of isolated compounds was tested in vitro against T. brucei rhodesiense (bloodstream trypomastigotes) and P. falciparum (intraerythrocytic forms). All assays were performed using validated protocols at the Swiss TPH [34].

Plasmodium falciparum = settings: cited from earlier work
HDAC1 = biological target: T1, HDAC1 (Homo sapiens, UniProt Q13547); test: In vitro HDAC inhibition assay (ZMAL substrate), HDAC1; format: biochemical
T1 construct: purchased BPS Bioscience 50051
Experimental: (§2) In vitro inhibitory activity against HDAC1-3 and 6 was determined using our previously published assay protocol. […] Next, the total assay volume (50 µL, max. 1% DMSO) was incubated at 37 °C for 90 min. Subsequently, 50 µL trypsin solution (0.4 mg/mL trypsin in buffer: 50 mM Tris- HCl, pH 8.0, 100 mM NaCl) was added, followed by additional 30 min of incubation at 37 °C. Fluorescence (excitation: 355 nm, emission: 460 nm) was measured using a FLUOstar OPTIMA microplate reader (BMG LABTECH). The IC50 values were determined by generating normalized dose–response curves using the build-in "log(inhibitor) vs. response (three parameters)" equation provided by GraphPad Prism (GraphPad Prism 9.0, San Diego, USA). Compounds were tested in duplicates, reported mean IC50 values, including standard deviation, are calculated from at least two independent experiments.

HDAC3/NcoR2 = biological target: T2, HDAC3/NcoR2 (Homo sapiens, UniProt O15379); test: In vitro HDAC inhibition assay (ZMAL substrate), HDAC3; format: biochemical; settings: mean ± SD of at least two independent experiments
T2 construct: purchased BPS Bioscience 50003
Experimental: as §2

HDAC6 = biological target: T3, HDAC6 (Homo sapiens, UniProt Q9UBN7); test: In vitro HDAC inhibition assay (ZMAL substrate), HDAC6; format: biochemical
T3 construct: purchased BPS Bioscience 50006
T3 sequence (Q9UBN7 1-1215): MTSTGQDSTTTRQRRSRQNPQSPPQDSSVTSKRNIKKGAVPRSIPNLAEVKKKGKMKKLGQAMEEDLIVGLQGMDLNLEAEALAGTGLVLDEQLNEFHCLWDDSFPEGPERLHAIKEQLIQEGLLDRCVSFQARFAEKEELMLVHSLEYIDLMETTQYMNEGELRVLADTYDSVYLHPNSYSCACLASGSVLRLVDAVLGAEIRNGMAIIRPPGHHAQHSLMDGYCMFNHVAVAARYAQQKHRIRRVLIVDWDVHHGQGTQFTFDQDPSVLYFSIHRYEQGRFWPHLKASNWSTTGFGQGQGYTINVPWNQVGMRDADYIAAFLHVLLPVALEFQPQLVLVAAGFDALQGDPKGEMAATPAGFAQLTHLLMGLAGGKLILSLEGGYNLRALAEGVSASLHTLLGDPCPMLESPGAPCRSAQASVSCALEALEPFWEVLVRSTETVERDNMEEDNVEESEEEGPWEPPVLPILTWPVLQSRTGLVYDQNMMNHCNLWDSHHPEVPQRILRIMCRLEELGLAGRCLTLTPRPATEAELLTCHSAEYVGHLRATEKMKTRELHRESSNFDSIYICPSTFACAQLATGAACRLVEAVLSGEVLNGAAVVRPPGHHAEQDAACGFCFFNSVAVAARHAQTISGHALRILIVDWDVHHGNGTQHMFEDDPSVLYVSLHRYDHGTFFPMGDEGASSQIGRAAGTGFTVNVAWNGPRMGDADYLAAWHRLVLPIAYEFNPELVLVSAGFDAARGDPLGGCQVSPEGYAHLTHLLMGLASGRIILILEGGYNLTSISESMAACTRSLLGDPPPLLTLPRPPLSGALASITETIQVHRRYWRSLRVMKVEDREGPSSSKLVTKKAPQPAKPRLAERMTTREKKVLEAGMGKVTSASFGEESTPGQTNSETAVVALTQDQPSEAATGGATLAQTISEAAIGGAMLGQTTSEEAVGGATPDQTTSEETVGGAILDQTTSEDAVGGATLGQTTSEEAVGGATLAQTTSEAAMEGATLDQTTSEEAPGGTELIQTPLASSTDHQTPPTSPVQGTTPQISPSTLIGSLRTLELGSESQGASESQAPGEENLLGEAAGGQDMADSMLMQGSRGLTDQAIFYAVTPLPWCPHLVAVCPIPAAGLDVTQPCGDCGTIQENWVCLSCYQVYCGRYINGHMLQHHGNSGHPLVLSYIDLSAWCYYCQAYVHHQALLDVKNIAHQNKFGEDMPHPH
Experimental: as §2

HepG2 = settings: human liver carcinoma cell line HepG2; cited from earlier work
HDAC2 = biological target: T4, HDAC2 (Homo sapiens, UniProt Q92769); test: biochemical; settings: mean ± SD of at least two independent experiments
T4 construct: purchased BPS Bioscience 50052
Experimental: as §2, with “USA).” for “USA). Compounds were tested in duplicates, reported mean IC50 values, including standard deviation, are calculated from at least two independent experiments.”

HepG2 (HB-8065) = settings: resazurin assay, 24 h incubation, 0.01-100 µM tested
A549 (CCL-185) = settings: resazurin assay, 24 h incubation, 0.01-100 µM tested
[2] = system: Trypanosoma brucei rhodesiense STIB 900; test: In vitro antiparasitic activity against T. brucei rhodesiense; format: cell-based; settings: bloodstream trypomastigotes
Experimental: as §1

in vitro [3] = settings: human
[4] = mean ± SD of at least two independent experiments, [b] < 30% inhibition at the stated concentration, read-out: IC50 HDAC1
[5] = mean ± SD of at least two independent experiments, [b] < 30% inhibition at the stated concentration, read-out: IC50 HDAC6

T1 sequence (Q13547 whole entry): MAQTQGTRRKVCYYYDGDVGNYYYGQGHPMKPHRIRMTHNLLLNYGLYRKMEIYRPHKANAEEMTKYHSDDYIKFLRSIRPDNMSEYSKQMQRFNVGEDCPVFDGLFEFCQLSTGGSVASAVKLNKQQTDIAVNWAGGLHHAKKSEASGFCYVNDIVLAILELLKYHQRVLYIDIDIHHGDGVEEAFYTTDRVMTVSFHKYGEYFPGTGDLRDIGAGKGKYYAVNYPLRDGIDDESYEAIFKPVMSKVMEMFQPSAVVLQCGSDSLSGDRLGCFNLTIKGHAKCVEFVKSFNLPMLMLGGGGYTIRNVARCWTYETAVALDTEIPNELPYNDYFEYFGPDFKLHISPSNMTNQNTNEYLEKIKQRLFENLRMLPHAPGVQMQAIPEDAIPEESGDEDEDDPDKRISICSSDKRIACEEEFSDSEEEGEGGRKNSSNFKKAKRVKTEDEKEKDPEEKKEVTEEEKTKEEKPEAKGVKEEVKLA
T2 sequence (O15379 whole entry): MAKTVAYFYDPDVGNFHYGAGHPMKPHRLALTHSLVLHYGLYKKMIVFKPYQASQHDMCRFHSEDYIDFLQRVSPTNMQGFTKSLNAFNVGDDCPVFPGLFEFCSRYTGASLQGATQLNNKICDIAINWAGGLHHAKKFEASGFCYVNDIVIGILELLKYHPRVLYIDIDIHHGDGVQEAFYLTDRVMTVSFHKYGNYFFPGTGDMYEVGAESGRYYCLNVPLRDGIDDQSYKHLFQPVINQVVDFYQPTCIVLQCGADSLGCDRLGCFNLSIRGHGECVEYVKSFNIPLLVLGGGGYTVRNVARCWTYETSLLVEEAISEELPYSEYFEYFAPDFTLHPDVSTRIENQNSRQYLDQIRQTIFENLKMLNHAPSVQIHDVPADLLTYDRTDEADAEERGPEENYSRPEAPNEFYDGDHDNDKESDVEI
T2 sequence (Q9Y618 395-489 partner limits assumed): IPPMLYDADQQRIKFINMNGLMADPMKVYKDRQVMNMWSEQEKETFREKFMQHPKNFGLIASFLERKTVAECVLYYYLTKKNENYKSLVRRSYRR
T4 sequence (Q92769 whole entry): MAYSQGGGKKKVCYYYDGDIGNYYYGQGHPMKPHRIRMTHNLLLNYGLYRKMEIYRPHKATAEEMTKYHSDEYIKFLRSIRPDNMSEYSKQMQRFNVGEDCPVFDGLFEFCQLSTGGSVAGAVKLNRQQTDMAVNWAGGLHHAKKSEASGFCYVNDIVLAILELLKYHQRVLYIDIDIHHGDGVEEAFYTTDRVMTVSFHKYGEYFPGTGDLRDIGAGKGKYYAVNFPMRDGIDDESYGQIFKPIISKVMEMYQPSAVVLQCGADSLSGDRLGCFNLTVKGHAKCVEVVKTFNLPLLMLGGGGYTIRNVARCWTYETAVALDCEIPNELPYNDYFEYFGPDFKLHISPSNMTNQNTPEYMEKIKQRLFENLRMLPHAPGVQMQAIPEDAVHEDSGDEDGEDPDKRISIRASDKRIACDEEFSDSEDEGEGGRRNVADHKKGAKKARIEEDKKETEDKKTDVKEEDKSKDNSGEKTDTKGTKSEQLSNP

SMILES | IC50 (in vitro [1]) [µM] | IC50 (P. falciparum NF54) [µM] | IC50 (Plasmodium falciparum; read-out: IC50 antiparasitic activity against Plasmodium falciparum) [µM] | IC50 (HDAC1; [4]) [µM] | IC50 (HDAC3/NcoR2) [µM] | IC50 (HDAC6; [5]) [µM] | IC50 (HepG2) [µM] | IC50 (HDAC2) [µM] | IC50 cytotoxicity HepG2 (HepG2 (HB-8065)) | IC50 cytotoxicity A549 (A549 (CCL-185)) | Activity against Trypanosoma brucei rhodesiense STIB 900 [2] | IC50 (HDAC1) [µM] | IC50 (HDAC6) [µM] | IC50 (in vitro [3]) [µM] | IC50 (Plasmodium falciparum; read-out: IC50 in the P. falciparum assay) [µM]
COn1cc(C[C@@H]2NC(=O)[C@H](CCCCCC(=O)O)NC(=O)[C@H]3CCCCN3C(=O)[C@H](Cc3ccccc3)NC2=O)c2ccccc21 [Apicidin F (1), 6-[(3S,6S,9S,12R)-3-benzyl-6-[(1-methoxyindol-3-yl)methyl]-2,5,8,11-tetraoxo-1,4,7,10-tetrazabicyclo[10.4.0]hexadecane-9-yl]hexanoic acid] (cyclo([Asu][Trp(1-OMe)]F[dPip])) | 63.7 | 0.51 | 0.67 | 0.102 ± 0.004 | 0.202 ± 0.026 | 6.38 ± 1.57 | 110 | 0.164 ± 0.017 | – | – | – | – | – | – | –
COn1cc(C[C@@H]2NC(=O)[C@H](CCCCCC(=O)O)NC(=O)[C@H]3CCCN3C(=O)[C@H](Cc3ccccc3)NC2=O)c2ccccc21 [Apicidin J (2), 6-[(3S,6S,9S,12R)-3-benzyl-6-[(1-methoxyindol-3-yl)methyl]-2,5,8,11-tetraoxo-1,4,7,10-tetrazabicyclo[10.3.0]pentadecane-9-yl]hexanoate] (cyclo([Asu][Trp(1-OMe)]F[dP])) | 46.5 | 1.1 | – | 0.342 ± 0.018 | 0.754 ± 0.112 | 9.87 ± 1.4 | – | 0.633 ± 0.028 | no IC50 could be calculated | no IC50 could be calculated | – | – | – | – | –
COn1cc(C[C@@H]2NC(=O)[C@H](CCCCCCO)NC(=O)[C@H]3CCCCN3C(=O)[C@H](Cc3ccccc3)NC2=O)c2ccccc21 [Apicidin K (3), (3S,6S,9S,12R)-3-benzyl-9-(6-hydroxyhexyl)-6-[(1-methoxyindol-3-yl)methyl]-1,4,7,10-tetrazabicyclo[10.4.0]hexadecane-2,5,8,11-tetrone] | 7.2 | 1.1 | – | > 3.33 | – | > 10 | – | – | – | – | – | – | – | – | –
COn1cc(C[C@@H]2NC(=O)[C@H](CCCCCCO)NC(=O)[C@H]3CCCN3C(=O)[C@H](Cc3ccccc3)NC2=O)c2ccccc21 [Apicidin L (4), (3S,6S,9S,14aR)-9-benzyl-3-(6-hydroxyhexyl)-6-[(1-methoxy-1H-indol-3-yl)methyl]decahydropyrrolo[1,2-a][1,4,7,10]tetraazacyclododecine-1,4,7,10-tetraone] | 20 | 2.1 | – | – | – | – | – | – | no IC50 could be calculated | no IC50 could be calculated | no effect | > 10 | > 10 | – | –
CCC(=O)CCCCC[C@@H]1NC(=O)[C@H]2CCCCN2C(=O)[C@H]([C@@H](C)CC)NC(=O)[C@H](Cc2cn(OC)c3ccccc23)NC1=O [apicidin (5), apicidin] | – | – | – | – | – | – | 1.3 | – | – | – | – | – | – | 2.7 | 0.2
